Test results: patent US9868766B2, “Peptides as oxytocin agonists” (Hoffmann-La Roche Inc., priority 2012, dated 2018)
Positions of bridges follow the written chain, without caps; N, C: chain ends. Non-standard residues stand in square brackets, D forms with d. Residues, ends and D or L forms follow the SMILES beside them. Phe(4-NH2) = Nc1ccc(C[C@H](N)C(=O)O)cc1; Dab = NCC[C@H](N)C(=O)O; Sar = CNCC(=O)O

Tests used:
Type in all cases: cell-based
[1] = biological target: T1, human Oxytocin (OTR) receptor (Homo sapiens, UniProt P30559); experiment: Calcium flux assay (FLIPR), agonist mode, CHO cells expressing human OTR; conditions: for EC50: CHO cells stably expressing human OTR, calcium flux, read-out: hOT EC50; for hOT efficacy (%) / Emax: maximum response normalized to endogenous full agonist = 100%; for Emax: CHO, read-out: hOT efficacy (%)
T1 construct: expressed in transfected cells
T1 sequence (P30559 1-389): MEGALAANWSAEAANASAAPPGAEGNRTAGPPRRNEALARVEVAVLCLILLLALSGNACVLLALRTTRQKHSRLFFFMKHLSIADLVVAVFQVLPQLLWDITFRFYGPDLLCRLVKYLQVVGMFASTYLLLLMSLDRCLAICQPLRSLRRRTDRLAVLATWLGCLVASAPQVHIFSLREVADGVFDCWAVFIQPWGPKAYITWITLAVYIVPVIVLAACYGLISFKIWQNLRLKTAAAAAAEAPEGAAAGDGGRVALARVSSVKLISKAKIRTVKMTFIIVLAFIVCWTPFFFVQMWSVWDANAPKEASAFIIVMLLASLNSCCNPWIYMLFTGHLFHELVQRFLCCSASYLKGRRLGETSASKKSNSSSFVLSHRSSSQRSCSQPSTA
Excerpt: (§1) Chines Hamster Ovary (CHO) cells were transfected with expression plasmids encoding either the human V1a, the human Oxytocin (OTR) or the humanV2 receptor, the later in combination with the chimeric Gqs5 G protein to redirect the signal to Calcium flux. Stable cells were cloned by limiting dilution to yield monoclonal cell lines expressing either human V1a, human V2+Gqs5 or human OTR receptors and selected based on functional responses detected on a fluorometric imaging plate reader (FLIPR) detecting Calcium flux in the cell after receptor activation.
On the afternoon before the assay, cells were plated at a density of 50,000 cells/well into black 96 well plates with clear bottoms to allow cell inspection and fluorescence measurements from the bottom of each well. The density of cells was sufficient to yield a confluent monolayer the next day. Hanks balanced salt solution, without phenol red, containing 20 mM HEPES (pH 7.3) and 2.5 mM probenecid (assay buffer) was prepared fresh for each experiment. Compound dilutions were made using a Beckman Biomek 2000 laboratory automation workstation, in assay buffer containing 1% DMSO. The dye-loading buffer consisted of a final concentration of 2 μM Fluo-4-AM (dissolved in DMSO and pluronic acid) in assay buffer. […] Once dye-loaded, the cells were washed thoroughly on an Embla cell washer with the assay buffer to remove any unincorporated dye. Exactly 100 μl assay buffer was left in each well.
Each 96 well plate containing dye-loaded cells was placed into the FLIPR machine and the laser intensity set to a suitable level to detect low basal fluorescence. To test compounds as agonists, 25 μl diluted compound was added to the plate 10 seconds into the fluorescent measurements and fluorescent response was recorded for 5 minutes. The fluorescence data was normalized to the endogenous full agonist dose-response set at 100% for the maximum response and 0% for the minimum. […] The concentration of agonist that produced a half-maximal response is represented by the EC50 value, the logarithm of which yielded the pEC50 value.

human V1a receptor = biological target: T2, human V1a receptor (Homo sapiens, UniProt P37288); experiment: Calcium flux assay (FLIPR), agonist mode, CHO cells expressing human V1a; conditions: CHO cells stably expressing human V1a; calcium flux; read-out: hV1a EC50
T2 construct: expressed in transfected cells
Excerpt: as §1, with “activation. The stable cell lines were grown in F-12 K Nutrient Mixture (Kaighns Modification), containing 10% foetal bovine serum (FBS), 1% penicillin-streptomycin, 1% L-glutamate, 200 ug/ml Geneticin at 37° C. in a 10% CO2 incubator at 95% humidity.” for “activation.”
(§2) On the afternoon before the assay, cells were plated at a density of 50,000 cells/well into black 96 well plates with clear bottoms to allow cell inspection and fluorescence measurements from the bottom of each well. The density of cells was sufficient to yield a confluent monolayer the next day. Hanks balanced salt solution, without phenol red, containing 20 mM HEPES (pH 7.3) and 2.5 mM probenecid (assay buffer) was prepared fresh for each experiment. Compound dilutions were made using a Beckman Biomek 2000 laboratory automation workstation, in assay buffer containing 1% DMSO. The dye-loading buffer consisted of a final concentration of 2 μM Fluo-4-AM (dissolved in DMSO and pluronic acid) in assay buffer. The existing culture media was removed from the wells and 100 μl of the dye-loading buffer was added to each well and incubated for approximately 60 min at 37° C. in a 5% CO2 incubator at 95% humidity. Once dye-loaded, the cells were washed thoroughly on an Embla cell washer with the assay buffer to remove any unincorporated dye. Exactly 100 μl assay buffer was left in each well.
(§3) Each 96 well plate containing dye-loaded cells was placed into the FLIPR machine and the laser intensity set to a suitable level to detect low basal fluorescence. To test compounds as agonists, 25 μl diluted compound was added to the plate 10 seconds into the fluorescent measurements and fluorescent response was recorded for 5 minutes. The fluorescence data was normalized to the endogenous full agonist dose-response set at 100% for the maximum response and 0% for the minimum. Each agonist concentration-response curve was constructed using a four parameter logistic equation with Microsoft Excel XLFit as follows: Y=Minimum+((Maximum−Minimum)/(1+10^(Log EC50-X)nH)), where y is the % normalized fluorescence, minimum is the minimum y, maximum is the maximum y, log EC50 is the log10 concentration which produces 50% of the maximum induced fluorescence, x is the log10 of the concentration of the agonist compound and H is the slope of the curve (the Hill Coefficient). The maximum value gives the efficacy of the agonist test compound in percentage. The concentration of agonist that produced a half-maximal response is represented by the EC50 value, the logarithm of which yielded the pEC50 value.

human V2 receptor = biological target: T3, human V2 receptor (Homo sapiens, UniProt P30518); experiment: Calcium flux assay (FLIPR), agonist mode, CHO cells expressing human V2 + Gqs5; conditions: for EC50: CHO cells stably expressing human V2 + chimeric Gqs5, calcium flux, read-out: hV2 EC50; for hV2 efficacy (%) / Emax: maximum response normalized to endogenous full agonist = 100%; for Emax: CHO, read-out: hV2 efficacy (%)
T3 construct: expressed in transfected cells
Excerpt: as §1, with “activation. The stable cell lines were grown in F-12 K Nutrient Mixture (Kaighns Modification), containing 10% foetal bovine serum (FBS), 1% penicillin-streptomycin, 1% L-glutamate, 200 ug/ml Geneticin at 37° C. in a 10% CO2 incubator at 95% humidity.” for “activation.”
as §2, §3

T3 sequence (P30518 whole entry): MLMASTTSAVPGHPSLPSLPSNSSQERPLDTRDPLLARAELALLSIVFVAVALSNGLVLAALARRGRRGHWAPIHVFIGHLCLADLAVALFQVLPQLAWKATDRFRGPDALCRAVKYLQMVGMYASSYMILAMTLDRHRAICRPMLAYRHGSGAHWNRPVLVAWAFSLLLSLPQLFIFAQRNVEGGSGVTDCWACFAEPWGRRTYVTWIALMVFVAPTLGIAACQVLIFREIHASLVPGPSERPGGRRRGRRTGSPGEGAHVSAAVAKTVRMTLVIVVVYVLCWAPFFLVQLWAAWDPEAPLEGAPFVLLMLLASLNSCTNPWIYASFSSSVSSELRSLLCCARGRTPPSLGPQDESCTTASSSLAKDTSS
T2 sequence (P37288 whole entry): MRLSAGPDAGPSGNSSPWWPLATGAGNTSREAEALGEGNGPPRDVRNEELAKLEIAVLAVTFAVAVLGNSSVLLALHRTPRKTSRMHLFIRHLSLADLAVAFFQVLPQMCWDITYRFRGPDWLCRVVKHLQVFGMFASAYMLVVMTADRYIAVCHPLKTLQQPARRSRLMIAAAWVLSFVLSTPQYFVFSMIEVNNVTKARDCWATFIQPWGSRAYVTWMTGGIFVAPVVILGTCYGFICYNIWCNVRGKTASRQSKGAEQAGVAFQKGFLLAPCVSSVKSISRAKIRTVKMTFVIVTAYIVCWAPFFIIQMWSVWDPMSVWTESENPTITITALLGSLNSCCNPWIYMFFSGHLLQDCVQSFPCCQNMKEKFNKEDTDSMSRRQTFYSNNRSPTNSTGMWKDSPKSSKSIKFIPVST

CC[C@H](C)[C@@H]1NC(=O)[C@H](Cc2ccc(O)cc2)NC(=O)CNC(=O)CC[C@@H](C(=O)N(C)CC(=O)N[C@@H](Cc2c[nH]cn2)C(=O)NCC(N)=O)NC(=O)[C@H](CC(N)=O)NC(=O)[C@H](CCC(N)=O)NC1=O [Example 34] (GYIQNE[Sar]HG-NH2; lactam N-6)
EC50 [1]: 0.01 µM
hOT efficacy (%) [1]: 136%
EC50 (human V1a receptor): > 10 µM
EC50 (human V2 receptor): 0.145 µM
hV2 efficacy (%) (human V2 receptor): 120%

CC[C@H](C)[C@@H]1NC(=O)[C@H](Cc2ccc(O)cc2)NC(=O)CNC(=O)CC[C@@H](C(=O)N(C)CC(=O)N[C@@H](CO)C(=O)NCC(N)=O)NC(=O)[C@H](CC(N)=O)NC(=O)[C@H](CCC(N)=O)NC1=O [Example 28] (GYIQNE[Sar]SG-NH2; lactam N-6)
EC50 [1]: 0.005 µM
hOT efficacy (%) [1]: 122%
EC50 (human V1a receptor): > 10 µM
EC50 (human V2 receptor): 4.17 µM
Emax (human V2 receptor): 87%

CC[C@H](C)[C@@H]1NC(=O)[C@H](Cc2ccc(N)cc2)NC(=O)CNC(=O)CC[C@@H](C(=O)N(C)CC(=O)N[C@@H](CC(C)C)C(=O)NCC(N)=O)NC(=O)[C@H](CC(N)=O)NC(=O)[C@H](CCC(N)=O)NC1=O [Example 2] (G[Phe(4-NH2)]IQNE[Sar]LG-NH2; lactam N-6)
EC50 [1]: 0.009 µM
hOT efficacy (%) [1]: 112%
EC50 (human V1a receptor): > 27 µM
EC50 (human V2 receptor): 7.91 µM
Emax (human V2 receptor): 74%

CC[C@H](C)[C@@H]1NC(=O)[C@H](Cc2ccc(O)cc2)NC(=O)CNC(=O)CC[C@@H](C(=O)N(C)CC(=O)N[C@@H](Cc2ccccc2)C(=O)NCC(N)=O)NC(=O)[C@H](CC(N)=O)NC(=O)[C@H](CCC(N)=O)NC1=O [Example 27] (GYIQNE[Sar]FG-NH2; lactam N-6)
EC50 [1]: 0.005 µM
hOT efficacy (%) [1]: 128%
EC50 (human V1a receptor): > 10 µM
EC50 (human V2 receptor): 1.5 µM
Emax (human V2 receptor): 101%

CC[C@H](C)[C@@H]1NC(=O)[C@H](Cc2ccc(O)cc2)NC(=O)CNC(=O)CC[C@@H](C(=O)N(C)CC(=O)N[C@@H](CC(C)C)C(=O)NCC(N)=O)NC(=O)[C@H](CC(N)=O)NC(=O)[C@H](CCC(N)=O)NC1=O [Example 13] (GYIQNE[Sar]LG-NH2; lactam N-6)
EC50 [1]: 0.0002 µM
Emax [1]: 111%
EC50 (human V1a receptor): > 27 µM
EC50 (human V2 receptor): 5.11 µM
Emax (human V2 receptor): 97%

CC[C@H](C)[C@@H]1NC(=O)[C@H](Cc2ccc(O)cc2)NC(=O)CNC(=O)CC[C@@H](C(=O)N(C)CC(=O)N[C@@H](CCC(=O)O)C(=O)NCC(N)=O)NC(=O)[C@H](CC(N)=O)NC(=O)[C@H](CCC(N)=O)NC1=O [Example 29] (GYIQNE[Sar]EG-NH2; lactam N-6)
EC50 [1]: 0.032 µM
hOT efficacy (%) [1]: 130%
EC50 (human V1a receptor): > 10 µM
EC50 (human V2 receptor): 10.7 µM
Emax (human V2 receptor): 39%

CC[C@H](C)[C@@H]1NC(=O)[C@H](Cc2ccc(O)cc2)NC(=O)CNC(=O)CC[C@@H](C(=O)N(C)CC(=O)N[C@@H](CCN)C(=O)NCC(N)=O)NC(=O)[C@H](CC(N)=O)NC(=O)[C@H](CCC(N)=O)NC1=O [Example 30] (GYIQNE[Sar][Dab]G-NH2; lactam N-6)
EC50 [1]: 0.006 µM
Emax [1]: 119%
EC50 (human V1a receptor): > 10 µM
EC50 (human V2 receptor): 0.142 µM
hV2 efficacy (%) (human V2 receptor): 104%
